Publication PMC11432087, “Hydrogen Sulfide-Releasing Carbonic Anhydrase Inhibitors Effectively Suppress Cancer Cell Growth” (International Journal of Molecular Sciences, 2024)
Where two headings read alike, the source gives them in different places.

Legend:
hCA IX [1] = conditions: stopped-flow CO2 hydrase assay, mean of three assays; cited from earlier work
hCA II = conditions: stopped-flow CO2 hydrase assay, mean of three assays; cited from earlier work
hCA I = conditions: stopped-flow CO2 hydrase assay, mean of three assays; cited from earlier work
hCA XII = conditions: stopped-flow CO2 hydrase assay, mean of three assays; cited from earlier work
hCA IV [2] = conditions: stopped-flow CO2 hydrase assay, mean of three assays; cited from earlier work
hCA IX [3] = assay: Stopped-flow CO2 hydrase inhibition assay, hCA IX; assay type: biochemical, human; conditions: ratio of KIs
Experimental: (§1) An Applied Photophysics stopped-flow instrument (Applied Photophysics Ltd, Leatherhead, UK) was used for assaying the CA-catalyzed CO2 hydration activity. Phenol red (at a concentration of 0.2 mM) was used as an indicator, working at the absorbance maximum of 557 nm, with 20 mM Hepes (pH 7.5) as a buffer and 20 mM Na2SO4 for maintaining constant the ionic strength, following the initial rates of the CA-catalyzed CO2 hydration reaction for a period of 10−100 s. The CO2 concentrations ranged from 1.7 to 17 mM for the determination of the kinetic parameters and inhibition constants. For each inhibitor, at least six traces of the initial 5−10% of the reaction were used for determining the initial velocity. The uncatalyzed rates were determined in the same manner and subtracted from the total observed rates. Stock solutions of inhibitor (0.1 mM) were prepared in distilled−deionized water and dilutions up to 0.01 nM were made thereafter with the assay buffer. Inhibitor and enzyme solutions were preincubated together for 15 min at room temperature before the assay to allow for the formation of the E−I complex. The inhibition constants were obtained by nonlinear least-squares methods using Prism 7 (GraphPad Software, La Jolla, CA, USA) and the Cheng−Prusoff equation and represent the mean of at least three different determinations. The enzyme concentrations were in the range of 3–11 nM. All hCA isoforms were recombinant ones obtained in-house.

A549 [4] = assay: MTT antiproliferative assay, A549; assay type: cell-based; conditions: Homo sapiens, normoxic conditions, 72 h
Experimental: The human triple-negative breast cancer cell line (MDA-MB-231), colon cancer cell line (HCT-116), and lung cancer cell line (A549) used in this study were obtained from the American Type Culture Collection (ATCC). These cell lines were cultured as monolayers in Dulbecco’s Modified Eagle’s Medium (DMEM) supplemented with 10% FBS, 2 mM l-glutamine, 100 U/mL penicillin, and 100 µg/mL streptomycin sulfate. […] The cells were sub-cultured using trypsin/EDTA solution, counted with a hemocytometer, and plated on 96-well plates (5000 cells/well), allowing them to form a semi-confluent monolayer overnight. […]. DMSO (100 µL/well) was then added to dissolve the formazan crystals with shaking for 10 min, after which the absorb absorbance was read at 590 nm against no-cell blanks using a FLuo Star Optima microplate reader (BMG technologies, Ortenberg, Germany). Cell proliferation was calculated by comparing the OD values of the DMSO control wells with those of the samples, represented as % proliferation relative to the control.

HCT-116 [5] = assay: MTT antiproliferative assay, HCT-116 (normoxia and CoCl2-induced hypoxia); assay type: cell-based, human; conditions: for IC50: Homo sapiens, MTT, 72 h
Experimental: (§2) These cell lines were cultured as monolayers in Dulbecco’s Modified Eagle’s Medium (DMEM) supplemented with 10% FBS, 2 mM l-glutamine, 100 U/mL penicillin, and 100 µg/mL streptomycin sulfate. […] The cells were sub-cultured using trypsin/EDTA solution, counted with a hemocytometer, and plated on 96-well plates (5000 cells/well), allowing them to form a semi-confluent monolayer overnight. […] DMSO (100 µL/well) was then added to dissolve the formazan crystals with shaking for 10 min, after which the absorb absorbance was read at 590 nm against no-cell blanks using a FLuo Star Optima microplate reader (BMG technologies, Ortenberg, Germany). Cell proliferation was calculated by comparing the OD values of the DMSO control wells with those of the samples, represented as % proliferation relative to the control.

A549 [6] = assay: Annexin V-FITC/PI dual staining apoptosis assay, A549; assay type: cell-based, human
Experimental: (§3) Phosphatidylserine externalization was evaluated using the Annexin V-FITC/PI apoptosis detection kit (BD Biosciences, USA), following the manufacturer’s guidelines. […] Subsequently, the cells were re-suspended in 100 μL of binding buffer with the addition of 1 μL of FITC-Annexin V, followed by a 30-min incubation at 4 °C. After rinsing in binding buffer, the cells were resuspended in 150 μL of binding buffer with the addition of 1 μL of DAPI (1 μg/μL in PBS). Flow cytometry analysis was performed using the BD FACS Canto II flow cytometer and the results were interpreted with FlowJo7.6.4 software (Tree Star, Ashland, USA).

HCT-116 [7] = assay: Cell cycle analysis by DNA flow cytometry, HCT-116; assay type: cell-based, human; conditions: HCT-116, 24 h at IC50 concentration
Experimental: (§4) Following treatment, cells were washed twice with ice-cold phosphate-buffered saline (PBS). Subsequently, the treated cells were harvested through centrifugation, fixed in ice-cold 70% (v/v) ethanol, washed with PBS, re-suspended in 100 μg/mL RNase, stained with 40 μg/mL propidium iodide (PI), and subjected to flow cytometry analysis using FACS Calibur (Becton Dickinson, Franklin Lakes, NJ, USA). The cell cycle distributions were calculated using CellQuest software 5.1 (Becton Dickinson).

hCA IV [8] = assay: Stopped-flow CO2 hydrase inhibition assay, hCA IV; assay type: biochemical, human; conditions: ratio of KIs
Experimental: as §1

A549 [9] = assay: Cell cycle analysis by DNA flow cytometry, A549; assay type: cell-based, human; conditions: A549, 24 h at IC50 concentration
Experimental: as §4

MDA-MB-231 = assay: MTT antiproliferative assay, MDA-MB-231; assay type: cell-based; conditions: Homo sapiens, normoxic conditions, 72 h
Experimental: as §2

[10] = compound 150 µM, rat liver homogenate, 37 °C; cited from earlier work
HCT-116 [11] = assay: Annexin V-FITC/PI dual staining apoptosis assay, HCT-116; assay type: cell-based, human
Experimental: as §3

[12] = A549, treated at IC50 concentration
[13] = HCT-116, treated at IC50 concentration

Structure (SMILES): COc1ccc(CN(CCc2ccc(S(N)(=O)=O)cc2)C(=O)c2ccc(-c3cssc3=S)cc2)cc1 [Compound 27]
- Ki (hCA IX [1]): 50.3 nM
- Ki (hCA II): 589 nM
- Ki (hCA I): 2220 nM
- Ki (hCA XII): 76.4 nM
- Ki (hCA IV [2]): 1590 nM

Structure (SMILES): COc1ccc(CN(CCc2ccc(S(N)(=O)=O)cc2)C(=O)c2ccc(-c3cssc3=S)cc2)cc1OC [Compound 28]
- Ki (hCA IX [1]): 18.6 nM
- Ki (hCA II): 218 nM
- Ki (hCA I): 890 nM
- Ki (hCA XII): 8.9 nM
- Ki (hCA IV [2]): 293 nM

Structure (SMILES): NS(=O)(=O)c1ccc(CCN(Cc2cccc3ccccc23)C(=O)c2ccc(-c3cssc3=S)cc2)cc1 [Compound 30]
- hCA II/hCA IX selectivity ratio (hCA IX [3]): 286
- IC50 (A549 [4]): 1780 ± 40 nM
- IC50 Normoxia / IC50 Hypoxia (HCT-116 [5]; HCT-116): 2.5
- Increase in cytotoxicity under hypoxia compared to normoxia (HCT-116 [5]; HCT-116, chemically induced hypoxia): 2 fold
- Increase in activity concerning Staurosporine (HCT-116 [5]; HCT-116, hypoxic conditions): 10 fold
- Increase in activity concerning Staurosporine (HCT-116 [5]; HCT-116, normoxic conditions): 5 fold
- IC50 (HCT-116 [5]; HCT-116, chemically induced hypoxia with CoCl2·6H2O, read-out: IC50 HCT-116 (Hypoxia)): 930 ± 20 nM
- IC50 (HCT-116 [5]; HCT-116, normoxic conditions, read-out: IC50 HCT-116 (Normoxia)): 2300 ± 140 nM
- Fold increase in overall apoptosis compared to untreated control (A549 [6]; A549): 19.9 fold
- Early Apoptosis (Lower Right %) (A549 [6]; [12]): 5.36%
- Late Apoptosis (Upper Right %) (A549 [6]; [12]): 18.59%
- Total apoptosis (A549 [6]; [12]): 23.95%
- Ki (hCA II): 4460 nM
- Ki (hCA I): > 10000 nM
- %G0-G1 (HCT-116 [7]): 28.22%
- %G2/M (HCT-116 [7]): 31.39%
- %S (HCT-116 [7]): 18.4%
- %Sub-G1 (HCT-116 [7]): 21.99%
- Ki (hCA XII): 7 nM
- hCA II/hCA IV selectivity ratio (hCA IV [8]): 18.3
- %G0-G1 (A549 [9]): 22.93%
- %G2/M (A549 [9]): 34.96%
- %S (A549 [9]): 20.77%
- %Sub-G1 (A549 [9]): 21.34%
- Ki (hCA IV [2]): 244 nM
- IC50 (MDA-MB-231): 9590 ± 310 nM
- H2S release half-life t/2 [10]: 5.0 min
- Fold increase in overall apoptosis compared to untreated control (HCT-116 [11]; HCT-116): 32.9 fold
- Early Apoptosis (Lower Right %) (HCT-116 [11]; [13]): 10.23%
- Late Apoptosis (Upper Right %) (HCT-116 [11]; [13]): 15.49%
- Total apoptosis (HCT-116 [11]; [13]): 25.72%

Structure (SMILES): NS(=O)(=O)c1ccc(CCN(Cc2csc3ccccc23)C(=O)c2ccc(-c3cssc3=S)cc2)cc1 [Compound 31]
- Ki (hCA IX [1]): 2.4 nM
- Ki (hCA II): 2480 nM
- Ki (hCA I): > 10000 nM
- Ki (hCA XII): 8 nM

Structure (SMILES): NS(=O)(=O)c1ccc(CCN(CCc2ccccc2)C(=O)c2ccc(-c3cssc3=S)cc2)cc1 [Compound 32]
- Ki (hCA IX [1]): 126 nM
- Ki (hCA II): 661 nM
- Ki (hCA I): 4390 nM
- Ki (hCA XII): 9.6 nM
- Ki (hCA IV [2]): 243 nM

Structure (SMILES): N#CCCN(CCc1ccc(S(N)(=O)=O)cc1)C(=O)c1ccc(-c2cssc2=S)cc1 [Compound 33]
- Ki (hCA IX [1]): 28.7 nM
- Ki (hCA II): 60.4 nM
- Ki (hCA I): 429 nM
- Ki (hCA XII): 9.1 nM
- Ki (hCA IV [2]): 523 nM

Structure (SMILES): CN[C@@H]1C[C@H]2O[C@@](C)([C@@H]1OC)n1c3ccccc3c3c4c(c5c6ccccc6n2c5c31)C(=O)NC4 [Staurosporine, reference compound]
- IC50 (A549 [4]): 5110 ± 190 nM
